# Key:
# [1] = target: T1, HIV-1 RT wild type (WT) enzyme (Human immunodeficiency virus type 1 group M subtype B, UniProt P03367); assay: Reverse Transcriptase (RT) Assay, wild type enzyme (RNA-dependent DNA polymerase activity); format: biochemical, Human Immunodeficiency Virus (HIV-1); conditions: 1 µM compound, read-out: Reverse Transciptase Assay % inhibition (1 µM) WT
# T1 construct: Reverse transcriptase enzyme from the LAV strain of Human Immunodeficiency Virus (HIV-1) (1) was isolated from the bacterial strain JM109; made in house; host or cells: E. coli JM109 (clone pBRTprt1+ in vector pIBI21, lac promoter)
# Description: Utilizing the Reverse Transcriptase (RT) Assay described below, compounds can be tested for their ability to inhibit the RNA-dependent DNA polymerase activity of HIV-1 RT. Certain specific compounds described in the Examples which appear below, were so tested.
# (§1) Among the enzymes for which Human Immunodeficiency Virus (HIV-1) encodes is a reverse transcriptase (1), so-named because it transcribes a DNA copy from an RNA template. This activity can be quantitatively measured in a cell-free enzyme assay, which has been previously described (2), and is based upon the observation that reverse transcriptase is able to use a synthetic template [poly r(C) primed with oligo d(G)] to transcribe a radio-labelled, acid-precipitable DNA strand utilizing ^3H-dGTP as a substrate. The assay described below utilizes the wild type (WT) enzyme, which is the predominant form of the enzyme observed in patients infected with HIV-1. Utilization of mutant RT eraymes (Y181C and Y181L, prepared by site-directed mutagenesis in which the tyrosine residue at codon 181 has been replaced by a cysteine or a leucine residue, respectively) and analogous assay conditions allows compounds to be evaluated for their effectiveness at inhibiting these mutant enzymes.
# Reverse transcriptase enzyme from the LAV strain of Human Immunodeficiency Virus (HIV-1) (1) was isolated from the bacterial strain JM109 (3) expressing the DNA clone pBRTprt1+ (2) which is under the control of the lac promotor in the expression vector pIBI21 (4). An overnight culture grown in 2XYT medium (37°C, 225 rpm) (5) supplemented with 100 µg/mL ampicillin for positive selection is inoculated at a 1:40 dilution into M9 medium supplemented with 10µg/mL thiamine, 0.5% casamino acids, and 50 µg/mL ampicillin (5). The culture is incubated (37°C, 225 rpm) until it reaches an OD540 of 0.3-0.4. At that time the repressor inhibitor IPTG (isopropyl β-D-thiogalactopyranoside) is added to 0.5mM, and the mixture is incubated for 2 additional hours. Bacteria are pelleted, resuspended in a 50mM Tris, 0.6mM EDTA, 0.375M NaCl buffer and digested by the addition of lysozyme (1mg/mL) for 30 minutes on ice. The cells are lysed by the addition of 0.2% NP-40 and brought to 1M NaCl.
# After removal of the insoluble debris by centrifugation, the protein is precipitated by the addition of 3 volumes of saturated aqueous ammonium sulfate. The enzyme is pelleted, resuspended in RT buffer (50mM Tris pH 7.5, 1mM EDTA, 5mM DTT, 0.1% NP-40, 0.1M NaCI, and 50% glycerol), and stored at -70°C for further use.
# The 2X concentrated stock reaction mixture is aliquoted and stored at -20°C. The mixture is stable and thawed for use in each assay. This enzyme assay has been adapted to a 96 well microtiter plate system, and has been previously described (6). Tris buffer (50 mM, pH 7.4), vehicle (solvent diluted to match the compound dilution), or compounds in vehicle are dispensed into 96-well microtiter plates (10µL/well; 3 wells/ compound). The HIV-1 RT enzyme is thawed, diluted in 50mM Tris pH 7.4 so that fifteen µL of diluted enzyme contain 0.001 Unit (one unit is that amount of enzyme to transform 1 micromole of substrate per minute at 25°C), and fifteen µL are dispensed per well. Twenty µL of 0.12-0.5M EDTA are added to the first three wells of the microtiter plate. EDTA chelates the Mg^++ present and prevents reverse transcription. This group serves as background polymerization which is subtracted from all other groups. Twenty-five ul of the 2X reaction mixture are added to all wells and the assay is allowed to incubate at room temperature for 60 minutes. The assay is terminated by precipitating the DNA in each well with 50µL of 10% trichloracetic acid (TCA) (10% w/v) in sodium pyrophosphate (1% w/v). The microtiter plate is incubated for 15 minutes at 4°C and the precipitate is fixed onto #30 glass fiber paper (Schleicher & Schuell) using a Skatron semi-automatic harvester. […]
# HIV-1 RT Y181C = target: T2, HIV-1 RT Y181C (Human immunodeficiency virus type 1 group M subtype B, UniProt P03367, Y780C); assay: Reverse Transcriptase (RT) Assay, Y181C mutant enzyme; format: biochemical, Human Immunodeficiency Virus (HIV-1); conditions: 1 µM compound, read-out: Reverse Transciptase Assay % inhibition (1 µM) Y181C
# T2 construct: Utilization of mutant RT eraymes (Y181C and Y181L, prepared by site-directed mutagenesis); made in house
# Description: as §1
# The 2X concentrated stock reaction mixture is aliquoted and stored at -20°C. The mixture is stable and thawed for use in each assay. This enzyme assay has been adapted to a 96 well microtiter plate system, and has been previously described (6). Tris buffer (50 mM, pH 7.4), vehicle (solvent diluted to match the compound dilution), or compounds in vehicle are dispensed into 96-well microtiter plates (10µL/well; 3 wells/ compound). The HIV-1 RT enzyme is thawed, diluted in 50mM Tris pH 7.4 so that fifteen µL of diluted enzyme contain 0.001 Unit (one unit is that amount of enzyme to transform 1 micromole of substrate per minute at 25°C), and fifteen µL are dispensed per well. Twenty µL of 0.12-0.5M EDTA are added to the first three wells of the microtiter plate. EDTA chelates the Mg^++ present and prevents reverse transcription. This group serves as background polymerization which is subtracted from all other groups. Twenty-five ul of the 2X reaction mixture are added to all wells and the assay is allowed to incubate at room temperature for 60 minutes. The assay is terminated by precipitating the DNA in each well with 50µL of 10% trichloracetic acid (TCA) (10% w/v) in sodium pyrophosphate (1% w/v). The microtiter plate is incubated for 15 minutes at 4°C and the precipitate is fixed onto #30 glass fiber paper (Schleicher & Schuell) using a Skatron semi-automatic harvester. The filters are then washed with additional TCA (5%) containing sodium pyrophosphate (1%), rinsed with aqueous ethanol (70%), dried, and transferred to scintillation vials (6). Each vial receives 2 mL of scintillation cocktail and is counted in a Beckman beta counter. The calculation for percent inhibition is as follows: % inhibition =(CPM Mean Test Value - CPM Mean Control Value X100)/(CPM Mean Control Value) [formula]
# HIV-1 RT Y188L = target: T3, HIV-1 RT Y188L (Human immunodeficiency virus type 1 group M subtype B, UniProt P03367, Y787L); assay: Reverse Transcriptase (RT) Assay, Y188L mutant enzyme; format: biochemical, Human Immunodeficiency Virus (HIV-1); conditions: 1 µM compound
# T3 construct: effective against the reverse transcriptase of many mutant viruses; made in house
# MTT assay (cytotoxicity) = format: cell-based; conditions: human; H9 cells; five days incubation
# Method: In order to roughly assess the cytotoxicity of the compounds provided by the invention, several such compounds were tested in the MTT Assay described below. Compounds having a relatively high CC50 are preferred.
# The MTT [3-(4,5-dimethylthiazol-2-yl)-2,5 diphenyl tetrazolium bromide) assay is based on cleavage of tetrazolium bromide by metabolically active cells, resulting in a highly quantitative blue color. This assay has been previously described (1) but has been optimized for the purposes of the testing reported herein.
# The H9 cell line (2), an established human lymphoma suspension cell line grown in RPMI 1640 supplemented with 10% fetal bovine serum, is used as the target cell line in the assay. Cells (100µL) are plated in microtest plate wells at a concentration of 10^5 cells per mL in the presence of varying concentrations of inhibitor. The cells are incubated at 37°C in a humidified CO2 incubator. Five days later, 20µL of MTT (5mg/mL in RPMI 1640, sonicated, 0.2 micron filtered, and stored at 4°C) is added to each well. After 4 hours additional incubation at 37°C, 60µL of Triton-X is added to each well and thoroughly mixed to aid the solubilization of the crystals. Absolute ethanol (5µL) is added to each well and the resulting mixture is incubated for 30 minutes at 60°C and immediately read on a plate reader (Dynatech) at a wavelength of 570nm.
# Data from this assay are used to generate a nonlinear regression analysis which yields an CC50.
# [2] = test system: HTLV-IIIB strain of HIV-1; assay: Syncytia (human T-cell culture) assay; format: cell-based; conditions: Human immunodeficiency virus 1, IIIB, 96 h; c8166 cells; read four days after virus challenge
# Method: In order to confirm that compounds which are active in the RT Assay also have the ability to inhibit HIV replication in a living system, compounds according to the invention were also tested in the human T-Cell Culture (Syncytia) Assay described below.
# Formation of syncytia is a feature of in vitro cultures of CD4+ T-cells infected with HIV-1. In this assay, T-cells are treated with a putative replication inhibiting compound and then infected with HIV-1. After incubation, the culture is checked for the formation of syncytia. The absence or reduction in the number of syncytia is used as a measure of the test compound's ability to inhibit HIV replication.
# The target cells, designated c8166, are a subclone of human lymphoma cells of T-cell origin and are established at an initial density of 5x10^4 per 100 ul in RPMI 1640 (+ 10% fetal bovine serum) culture medium in 96 well flat bottom plates. A selected amount of test compound, dissolved in DMSO, is included. After 24 hours, 50-100 TCID50's (the dose that results in induced effect in 50% of test cultures) of the HTLV-IIIB strain of HIV-1 (2) are inoculated into each culture. Control cultures receive compound or virus only. Four days after virus challenge, cultures are visually examined for the frequency and distribution of virus-induced giant cell syncytia. The percent inhibition by the test compound is determined by comparison with control values. Confirmation of the presence or absence of virus replication is accomplished by harvesting the cell free culture fluids from all experimental groups to determine the presence or absence of infectious progeny through the induction of syncytia formation in secondary human T-cell cultures after 3 days.
SMILES,inhibition at 1 µM [1] [%],inhibition at 1 µM (HIV-1 RT Y181C) [%],Reverse Transciptase Assay % inhibition (1 µM) Y188L (HIV-1 RT Y188L) [%],CC50 at 120 h (MTT assay (cytotoxicity)) [µM],IC50 [2] [µM]
"CCN1c2ncccc2C(=O)N(C)c2ccc(-c3c[nH]c4ccccc34)nc21 [Example 28, 5,11-Dihydro-11-ethyl-2-(indol-3-yl)-5-methyl-6H-dipyrido[3,2-b:2',3'-e][1,4]diazepin-6-one]",96,93,72,> 15,
"CCN1c2ncccc2C(=O)N(C)c2ccc(-c3ccc[nH]3)nc21 [Example 13, 5,11-Dihydro-11-ethyl-5-methyl-2-(2-pyrrolyl)-6H-dipyrido[3,2-b:2',3'-e][1,4]diazepin-6-one]",88,80,17,,0.16
"CCCN1c2ncccc2C(=O)N(C)c2ccc(-c3cn[nH]c3)nc21 [Example 5, 5,11-Dihydro-5-methyl-11-n-propyl-2-(4-pyrazolyl)-6H-dipyrido[3,2-b:2',3'-e][1,4]diazepin 6-one]",90,90,63,> 60,
"CCCN1c2nc(-c3cn[nH]c3)ccc2NC(=O)c2cccnc21 [Example 4, 5,11-Dihydro-11-n-propyl-2-(4-pyrazolyl)-6H-dipyrido[3,2-b:2',3'-e][1,4]diazepin-6-one]",60,54,29,> 60,
"CCN1c2ncccc2C(=O)N(C)c2ccc(-c3c[nH]c(C(C)=O)c3)nc21 [Example 17, 2-(2-Acetylpyrrol-4-yl)-5,11-dihydro-11-ethyl-5-methyl-6H-dipyrido[3,2-b:2',3'-e][1,4]-diazepin-6-one]",78,62,27,,
"CCN1c2ncccc2C(=O)N(C)c2ccc(-c3cnn(CC)c3)nc21 [Example 2, 5,11-Dihydro-11-ethyl-2-(1-ethylpyrazol-4-yl)-5-methyl-6H-dipyrido[3,2-b:2',3'-e][1,4]-diazepin-6-one]",67,72,13,> 60,
"CCN1c2ncccc2C(=O)N(C)c2ccc(-c3cc[nH]n3)nc21 [Example 9, 5,11-Dihydro-11-ethyl-5-methyl-2-(3-pyrazolyl)-6H-dipyrido[3,2-b:2',3'-e][1,4]diazepin-6-one]",67,67,20,,
"CCN1c2ncccc2C(=O)N(C)c2ccc(-c3c[nH]c(C#N)c3)nc21 [Example 19, 2-(2-Cyanopyrrol-4-yl)-5,11-dihydro-11-ethyl-5-methyl-6H-dipyrido[3,2-b:2',3'-e][1,4]-diazepin-6-one]",91,75,55,,

# Source: EP0745083B1, “2-HETEROARYL-5,11-DIHYDRO-6H-DIPYRIDO [3,2-b:2',3'-e][1,4]DIAZEPINES AND THEIR USE IN THE PREVENTION OR TREATMENT OF HIV INFECTION” (BOEHRINGER INGELHEIM PHARMACEUTICALS INC., priority 1994, dated 1995)
